From patent US20260055083A1, “APOL1 INHIBITORS AND METHODS OF USE” (Maze Therapeutics, Inc., priority 2022, published 2026)

Experiments:
[1] = biological target: T1, APOL1 G2 (Homo sapiens, UniProt O14791, DEL388-389); experiment: APOL1 G2 HEK293 rescue of cell death caused by overexpression of APOL1 (CellTiter-Glo); assay type: cell-based; settings: HEK293/T-REx APOL1 G2 clone #2, doxycycline induction, 17 hours, CellTiter-Glo luminescence; reversal of cell death; geometric mean of at least 2 assay runs
T1 construct: expressed in transfected cells; host or cells: HEK293/T-REx APOL1 G2 clone #2, doxycycline-inducible
T1 sequence (O14791 with tags, fused parts or gaps DEL388-389): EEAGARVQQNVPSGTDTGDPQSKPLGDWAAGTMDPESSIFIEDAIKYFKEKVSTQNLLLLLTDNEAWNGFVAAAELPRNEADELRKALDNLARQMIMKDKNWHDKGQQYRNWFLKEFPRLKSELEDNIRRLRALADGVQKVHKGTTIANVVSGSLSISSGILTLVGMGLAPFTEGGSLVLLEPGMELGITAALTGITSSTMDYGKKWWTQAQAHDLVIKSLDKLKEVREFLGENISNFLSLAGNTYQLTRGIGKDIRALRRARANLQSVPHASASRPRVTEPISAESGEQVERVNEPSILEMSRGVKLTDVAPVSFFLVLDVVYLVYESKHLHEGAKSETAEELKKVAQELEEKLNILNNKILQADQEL
Procedure: A HEK293 clonal cell line overexpressing APOL1 G2 (HEK293/T-REx APOL1 G2/clone #2) was maintained in 1×DMEM-GlutaMax (Gibco, 10569-010) media with 10% tetracycline-free FBS (Takara Bio USA, 631101), 5 μg/mL Blasticidin (Gibco, A1113903), and 100 μg/mL Zeocin (Invitrogen, R25001) in T75 flasks. In preparation for the assay, this media was aspirated and 2 mL of prewarmed TrypLE Express (Gibco, 12605-010) was added to a flask to detach cells. The flask was then incubated (humidified, 37° C. with 5% CO2) for 3-5 minutes. Afterwards, 8 mL of prewarmed cell assay media (1×DMEM-GlutaMax media with 10% tetracycline-free FBS) was added to the trypsinized cells. The suspension was gently mixed, and cells were counted using a Countess Cell Counting Chamber (Invitrogen). The suspension was diluted using cell assay media to generate a working stock solution (166,667 cells/mL). Using a MultiDrop Combi (Thermo Electron Corp), 30 μL (final cell density=5,000 cells/well) of the working stock solution was dispensed into each well of white 384-well assay ready plates (Nunc™, 164610) containing 6 ng/mL doxycycline, to induce APOL1 expression, and compound. All compounds were plated in a duplicate 8-point dilution series that consisted of 3-fold stepwise dilutions (0.5% DMSO final). Assay plates were incubated (humidified, 37° C. with 5% CO2) for 17 hours. After the incubation, the plates were equilibrated at room temperature for 1 hour. Next, 15 μl of CellTiter-Glo® reagent (Promega, G7570) was added to each well using a MultiDrop Combi. Plates were placed on an orbital shaker (500 rpm) for 5 minutes to induce cell lysis and then incubated at room temperature for 10 minutes. Luminescence was measured on an Envision plate reader. Collaborative Drug Discovery software was utilized for graphing data. Plots were generated using a four parameter logistic curve fit.
Table B2 below provides the results from this experiment. Unless otherwise specified, EC50 values are reported as the geometric mean of at least 2 assay runs on separate days. Each run represents the average of a technical replicate, where each compound was assayed twice in the same plate. A superscript t symbol indicates a value from the average of a technical replicate from a single assay run, where each compound was assayed twice in the same plate. Compounds in Table B2 are referred to by the corresponding Compound Number in Table 1, which is also referred to in the synthetic examples. When one or more of the numbered compounds are identified by stereochemistry (for example, (R)- or (S)-), the specific stereoisomer for which data is provided in Table B2 may be identified by the elution order of such compound as described in the synthetic examples. To illustrate, Compound 2 is the first-eluting enantiomer of step 4 of Example 1 and Compound 3 is the second-eluting enantiomer of step 4 of Example 1. Further, by way of illustration, Compound 27 is the first-eluting enantiomeric mixture in step 4 of Example 7 and Compound 28 is the second-eluting enantiomeric mixture in step 4 of Example 7. Then, Compound 27 is separated into Compound 29 (the first-eluting enantiomer) and Compound 30 (the second-eluting enantiomer) in Example 8, and Compound 28 is separated into Compound 31 (the first-eluting enantiomer) and Compound 32 (the second-eluting enantiomer) in Example 8. Absolute stereochemistry of such compounds may be identified by methods known in the art.
Rescue EC50 values reported in Table B2 below represent the half-maximal effective concentration for reversal of cell death caused by overexpression of APOL1.

[2] = biological target: T1, APOL1 G2; experiment: APOL1 G2 FLIPR calcium influx assay (HEK T-REx/GCaMP6f/APOL1 G2 K6.3 cells); assay type: cell-based; settings: HEK293 clone expressing GCaMP6f, doxycycline-induced APOL1 G2; prevention of calcium influx; geometric mean of at least 2 assay runs
Procedure: A HEK293 clonal cell line was generated to stably express GCaMP6f, a genetically encoded calcium indicator, and inducibly express APOL1 G2 (HEK T-REx/GCaMP6f/APOL1 G2 K6.3). Cells were maintained in the following standard complete medium: DMEM with 4.5 g/L glucose and sodium pyruvate (BioWhittaker, Lonza, BE12-614F), supplemented with 10% FBS Performance Plus (Gibco, 16000044), 1% penicillin-streptomycin (BioWhittaker, DE17-602E), 2 mM ultraglutamine-1 (BioWhittaker cat. BE 17-605/U1), 50 μg/mL Zeocin (InvivoGen, ant-zn), 2.5 μg/mL Blasticidin (InvivoGen, ant-bl-5), and 25 μg/mL Hygromycin (InvivoGen, ant-hg). Standard propagation conditions consisted of plating 9×10^6, 4×10^6, 2×10^6 cells in a T225 flasks to be processed after 2, 3, or 4 days, respectively.
A source plate was generated containing 20 serially diluted compounds in DMSO (duplicate 8-point dose response). Next, 0.8 μL of compounds were transferred from the source plate to a destination plate prefilled with 79.2 μL of Ca^2+ free Tyrode's buffer (130 mM NaCl, 5 mM KCl, 1 mM MgCl2, 5 mM NaHCO3, 20 mM HEPES at pH 7.4). The destination plate was placed on a plate shaker (5 seconds at 2000 rpm) to mix. […] All transfer and mixing steps were conducted with an CyBi®-Well dispenser.
Cells were split by gently washing with DPBS (Euroclone, ECB4004L), followed by a 5-minute incubation (humidified, 37° C. with 5% CO2) with trypsin-EDTA solution (Euroclone, ECB3052D). Detached cells were diluted with standard complete medium without selective agents, counted, and plated in a 384 MTP microplate (GR4332CPL, Twin Helix) (10,000 cells/well in 25 μl/well) using a MATRIX WellMate dispenser. Plates were placed into a humidified incubator (37° C. with 5% CO2) overnight. The following day, 20 μL of doxycycline (Sigma, D9891) at 20 ng/mL in standard complete medium was added to cells with a CyBi®Drop dispenser to induce APOL1 G2 expression. After a 6-hour incubation (humidified, 37° C. with 5% CO2), cells were washed 3 times with Ca^2+ free Tyrode's Buffer (130 mM NaCl, 5 mM KCl, 1 mM MgCl2, 5 mM NaHCO3, 20 mM HEPES at pH 7.4) using a BIOTEK Microplate washer, such that 10 μL of buffer remained in each well after the final wash. Assay plates were then stored at room temperature for 10 minutes. Next, 10 μL of diluted compounds were transferred to the assay plate from the 2× compound plate using a CyBi®-Well dispenser. Compound incubation was then carried out at room temperature for 10 minutes. The assay plate was transferred to the […] and 20 μL of 10 mM Ca^2+ (final concentration=5 mM) Tyrode's buffer was injected.
Table B1 below summarizes the data from this experiment. Unless otherwise specified, AC50 and values are reported as the geometric mean of at least 2 assay runs on separate days. Each run represents the average of a technical replicate, where each compound was assayed twice in the same plate. A superscript t symbol indicates a value from the average of a technical replicate from a single assay run, where each compound was assayed twice in the same plate.
The AC50 values in Table B1 below reflect the compound's ability to prevent calcium influx by inhibiting APOL1. […] Compounds in Table B1 are referred to by the corresponding Compound Number in Table 1, which is also referred to in the synthetic examples. When one or more of the numbered compounds are identified by stereochemistry (for example, (R)- or (S)-), the specific stereoisomer for which data is provided in Table B1 may be identified by the elution order of such compound as described in the synthetic examples. To illustrate, Compound 2 is the first-eluting enantiomer of step 4 of Example 1 and Compound 3 is the second-eluting enantiomer of step 4 of Example 1. Further, by way of illustration, Compound 27 is the first-eluting enantiomeric mixture in step 4 of Example 7 and Compound 28 is the second-eluting enantiomeric mixture in step 4 of Example 7. […]

Row | SMILES | EC50 [1] [nM] | AC50 [2] [nM]
1 | CS(=O)(=O)C1(c2ccc(OC[C@@H]3CN(CCc4cccc(Cl)c4)CCN3)cc2)COC1 [Compound 107, (3S)-1-[2-(3-chlorophenyl)ethyl]-3-{[4-(3-methanesulfonyloxetan-3-yl)phenoxy]methyl}piperazine] | 245 | < 86.6
2 | C[C@@H]1C[C@H](COc2ccc(S(C)(=O)=O)nn2)CN1CCc1cccc(C#N)c1 [Compound 26, 3-{2-[(2R,4S)-4-{[(6-methanesulfonylpyridazin-3-yl)oxy]methyl}-2-methylpyrrolidin-1-yl]ethyl}benzonitrile] | 276 | 210
3 | CC(Cc1cc(Cl)cc(C#N)c1)N1C[C@@H](COc2ccc(S(C)(=O)=O)cc2)C[C@H]1C (single isomer, unassigned) [Compound 10, 3-chloro-5-[(2S or 2R)-2-[(2R,4S)-4-[(4-methanesulfonylphenoxy)methyl]-2-methylpyrrolidin-1-yl]propyl]benzonitrile] | 744 | 1020
4 | C[C@@H]1CN(CC(O)c2cccc(Cl)c2)C[C@H]1COc1ccc(S(C)(=O)=O)cc1 (single isomer, unassigned) [Compound 144, (1S) or (1R)-1-(3-chlorophenyl)-2-[trans-3-[(4-methanesulfonylphenoxy)methyl]-4-methylpyrrolidin-1-yl]ethan-1-ol] | 289 | 265
5 | C[C@@H]1C[C@H](COc2ccc(S(=O)(=O)CCO)cc2)CN1C1CCc2c(C#N)cc(Cl)cc2C1 (single isomer, unassigned) [Compound 57, (6S or 6R)-3-chloro-6-[(2R,4S)-4-{[4-(2-hydroxyethanesulfonyl)phenoxy]methyl}-2-methylpyrrolidin-1-yl]-5,6,7,8-tetrahydronaphthalene-1-carbonitrile] | 266 | 802
6 | C[C@@H]1CN(CCc2cccc(C#N)c2)C[C@H]1COc1ccc(S(C)(=O)=NCCS(C)(=O)=O)cc1 (stereo partly drawn) [Compound 68, 3-{2-[(3S,4S)-3-[(4-{[(2-methanesulfonylethyl)imino](methyl)oxo-λ^6-sulfanyl}phenoxy)methyl]-4-methylpyrrolidin-1-yl]ethyl}benzonitrile] | 366 | 708
7 | C[C@@H]1C[C@H](COc2ccc(S(=O)(=O)CCS(C)(=O)=O)cc2)CN1C1CCc2ccc(Cl)cc2C1 (single isomer, unassigned) [Compound 51, (2R,4S)-1-[(2R or 2S)-7-chloro-1,2,3,4-tetrahydronaphthalen-2-yl]-4-{[4-(2-methanesulfonylethanesulfonyl)phenoxy]methyl}-2-methylpyrrolidine] | 128 | 439
8 | CC(C(O)c1cc(Cl)cc(C#N)c1)N1C[C@@H](COc2ccc(S(C)(=O)=O)cc2)C[C@H]1C (single isomer, unassigned) [Compound 99, 3-chloro-5-[(1S,2R or 1R,2S or 1S,2S or 1R,2R)-1-hydroxy-2-[(2R,4S)-4-[(4-methanesulfonylphenoxy)methyl]-2-methylpyrrolidin-1-yl]propyl]benzonitrile] | 252 | 1690
9 | C[C@@H]1C[C@H](COc2ccc(S(C)(=O)=O)cc2)CN1C1CCc2ccc(Cl)cc2C1 (single isomer, unassigned) [Compound 5, (2R,4S)-1-[(2S or 2R)-7-chloro-1,2,3,4-tetrahydronaphthalen-2-yl]-4-[(4-methanesulfonylphenoxy)methyl]-2-methylpyrrolidine] | 47.6 | 488
10 | C[C@@H]1CN(CC(CO)c2cc(Cl)cc(C#N)c2)C[C@H]1COc1ccc(S(C)(=O)=O)cc1 (stereo partly drawn) [Compound 126, 3-chloro-5-(1-hydroxy-3-((3S,4S)-3-methyl-4-((4-(methylsulfonyl)phenoxy)methyl)pyrrolidin-1-yl)propan-2-yl)benzonitrile] | 2760 | 1740
11 | CS(=O)(=O)c1ccc(OC[C@@H]2CCCN(C3CCc4ccc(Cl)cc4C3)C2)cc1 (single isomer, unassigned) [Compound 133, (3R)-1-[(2R or 2S)-7-chloro-1,2,3,4-tetrahydronaphthalen-2-yl]-3-[(4-methanesulfonylphenoxy)methyl]piperidine] | 1910 | 1150
